Experimental data from publication PMC4503722, “Novel Phenotypic Outcomes Identified for a Public Collection of Approved Drugs from a Publicly Accessible Panel of Assays” (PLoS ONE, 2015).
Like-named read-outs stand apart in the source and are kept apart here.

Experiments:
[1] = test system: HCT116; experiment: cells; type: cell-based; conditions: basal
[2] = test system: SW480; experiment: cells; type: cell-based; conditions: for Basal_Viability ATP SW480 IC50/EC50 / IC50: assay number 24; for IC50: read-out: Basal_Viability ATP SW480 summarized IC50
[3] = test system: RKO; experiment: cells; type: cell-based; conditions: for Basal_Viability ATP RKO IC50/EC50 / IC50: assay number 29; for IC50: read-out: Basal_Viability ATP RKO summarized IC50
[4] = test system: DLD-1; experiment: cells; type: cell-based; conditions: for Basal_Viability ATP DLD-1 IC50/EC50 / IC50: assay number 23; for IC50: read-out: Basal_Viability ATP DLD-1 summarized IC50
[5] = test system: HT-29; experiment: cells; type: cell-based; conditions: for Basal_Viability ATP HT-29 IC50/EC50 / IC50: assay number 28; for IC50: read-out: Basal_Viability ATP HT-29 summarized IC50
[6] = test system: SNU-C1; experiment: cells; type: cell-based; conditions: for Basal_Viability ATP SNU-C1 IC50/EC50 / IC50: assay number 30; for IC50: read-out: Basal_Viability ATP SNU-C1 summarized IC50
[7] = test system: Colo320; experiment: cells; type: cell-based; conditions: for Basal_Viability ATP Colo 320 IC50/EC50 / IC50: assay number 27; for IC50: read-out: Basal_Viability ATP Colo 320 summarized IC50
[8] = test system: endothelial tube formation in co-cultures of ECFCs and ADSCs treated with VEGF; experiment: cells; type: cell-based, human; conditions: read-out: VEGF_ADSC\ECFC Angio CD31 TubeArea summarized IC50
[9] = test system: HeLa cells; experiment: cells; type: cell-based;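 for Hela CellCycMod PI 4N summarized IC50: value tracks stimulation of 4N DNA content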
[10] = test system: ECFC/ADSC co-culture cell nuclei number; conditions: read-out: VEGF_ADSC\ECFC Angio Hoechst NucArea summarized IC50

CC(C)NCC(O)COc1ccc(CCOCC2CC2)cc1 (stereo not drawn) [NCGC00015159-11]
Basal_Viability ATP HCT116 IC50/EC50 ([1]; assay number 25): > 20 µM | Basal_Viability ATP SW480 IC50/EC50 [2]: > 20 µM | Basal_Viability ATP RKO IC50/EC50 [3]: > 20 µM | Basal_Viability ATP DLD-1 IC50/EC50 [4]: > 20 µM | Basal_Viability ATP HT-29 IC50/EC50 [5]: > 20 µM | Basal_Viability ATP SNU-C1 IC50/EC50 [6]: > 20 µM | Basal_Viability ATP Colo 320 IC50/EC50 [7]: 6.1657 µM

O=C(O)c1ccccc1S [NCGC00018107-05]
IC50 ([1]; assay number 25, read-out: Basal_Viability ATP HCT116 summarized IC50): > 20 µM | IC50 ([2]; basal): > 20 µM | IC50 ([3]; basal): > 20 µM | IC50 ([4]; basal): > 20 µM | IC50 ([5]; basal): > 20 µM | IC50 ([6]; basal): > 20 µM | IC50 ([7]; basal): > 20 µM

CNS(=O)(=O)Cc1ccc2[nH]cc(CCN(C)C)c2c1 [NCGC00095838-04]
Basal_Viability ATP HCT116 IC50/EC50 ([1]; assay number 25): > 20 µM | Basal_Viability ATP SW480 IC50/EC50 ([2]; basal): > 6.6667 µM | Basal_Viability ATP RKO IC50/EC50 ([3]; basal): > 20 µM | Basal_Viability ATP DLD-1 IC50/EC50 ([4]; basal): > 20 µM | Basal_Viability ATP HT-29 IC50/EC50 ([5]; basal): > 20 µM | Basal_Viability ATP SNU-C1 IC50/EC50 ([6]; basal): > 20 µM | Basal_Viability ATP Colo 320 IC50/EC50 ([7]; basal): > 20 µM

CC(C)=CC1C(C(=O)OCN2C(=O)C3=C(CCCC3)C2=O)C1(C)C (stereo not drawn) [NCGC00168352-02]
IC50/EC50, Basal_Viability ATP HCT116 (assay number 25) [1]: > 20 µM | IC50/EC50, Basal_Viability ATP SW480 (assay number 24) ([2]; basal): > 20 µM | IC50/EC50, Basal_Viability ATP RKO (assay number 29) ([3]; basal): > 20 µM | IC50/EC50, Basal_Viability ATP DLD-1 (assay number 23) ([4]; basal): > 20 µM | IC50/EC50, Basal_Viability ATP HT-29 (assay number 28) ([5]; basal): > 20 µM | IC50/EC50, Basal_Viability ATP SNU-C1 (assay number 30) ([6]; basal): > 20 µM | IC50/EC50, Basal_Viability ATP Colo 320 (assay number 27) ([7]; basal): > 20 µM

OC[C@@H](O)[C@H](O)[C@H](O)[C@@H](O)CO [NCGC00166072-02]
Basal_Viability ATP HCT116 IC50/EC50 ([1]; assay number 25): > 20 µM | Basal_Viability ATP SW480 IC50/EC50 ([2]; basal): > 20 µM | Basal_Viability ATP RKO IC50/EC50 ([3]; basal): > 20 µM | Basal_Viability ATP DLD-1 IC50/EC50 ([4]; basal): > 20 µM | Basal_Viability ATP HT-29 IC50/EC50 ([5]; basal): > 20 µM | Basal_Viability ATP SNU-C1 IC50/EC50 ([6]; basal): > 20 µM | Basal_Viability ATP Colo 320 IC50/EC50 ([7]; basal): > 20 µM

O=c1[nH]cc(F)c(=O)[nH]1 [NCGC00015442-15]
IC50 [8]: > 10 µM | IC50 ([2]; basal): > 20 µM | IC50 ([9]; assay number 14, 2N, read-out: Hela CellCycMod PI 2N summarized IC50): > 10 µM | IC50 ([9]; assay number 15, S phase, read-out: Hela CellCycMod PI S Phase summarized IC50): > 10 µM | IC50 ([9]; assay number 16, 4N, read-out: Hela CellCycMod PI 4N summarized IC50): > 10 µM | IC50 ([9]; assay number 17, MI, read-out: Hela CellCycMod PI MI summarized IC50): > 10 µM | IC50 ([9]; assay number 18, cell number, read-out: Hela CellCycMod PI Cell Number summarized IC50): > 10 µM | IC50 ([3]; basal): > 20 µM | IC50 ([4]; basal): > 20 µM | IC50 ([5]; basal): > 20 µM | IC50 ([6]; basal): > 20 µM | IC50 [10]: > 10 µM | IC50 ([7]; basal): > 20 µM

CN(CCOc1ccc(CC2SC(=O)NC2=O)cc1)c1ccccn1 (stereo not drawn) [NCGC00095124-08]
Basal_Viability ATP HCT116 IC50/EC50 ([1]; assay number 25): > 20 µM | Basal_Viability ATP SW480 IC50/EC50 ([2]; basal): > 20 µM | Basal_Viability ATP RKO IC50/EC50 ([3]; basal): > 20 µM | Basal_Viability ATP DLD-1 IC50/EC50 ([4]; basal): > 20 µM | Basal_Viability ATP HT-29 IC50/EC50 ([5]; basal): > 20 µM | Basal_Viability ATP SNU-C1 IC50/EC50 ([6]; basal): 8.6851 µM | Basal_Viability ATP Colo 320 IC50/EC50 ([7]; basal): > 20 µM

Cc1c(NC(=O)c2cccnc2)c(=O)n(-c2ccccc2)n1C [NCGC00016605-08]
IC50/EC50, Basal_Viability ATP HCT116 (assay number 25) [1]: > 20 µM | IC50/EC50, Basal_Viability ATP SW480 (assay number 24) ([2]; basal): > 20 µM | IC50/EC50, Basal_Viability ATP RKO (assay number 29) ([3]; basal): > 20 µM | IC50/EC50, Basal_Viability ATP DLD-1 (assay number 23) ([4]; basal): > 20 µM | IC50/EC50, Basal_Viability ATP HT-29 (assay number 28) ([5]; basal): > 20 µM | IC50/EC50, Basal_Viability ATP SNU-C1 (assay number 30) ([6]; basal): > 20 µM | IC50/EC50, Basal_Viability ATP Colo 320 (assay number 27) ([7]; basal): > 20 µM

CCc1cccc2c3c([nH]c12)C(CC)(CC(=O)O)OCC3 (stereo not drawn) [NCGC00015399-16]
Basal_Viability ATP HCT116 IC50/EC50 ([1]; assay number 25): > 20 µM | Basal_Viability ATP SW480 IC50/EC50 ([2]; basal): > 20 µM | Basal_Viability ATP RKO IC50/EC50 ([3]; basal): > 20 µM | Basal_Viability ATP DLD-1 IC50/EC50 ([4]; basal): > 20 µM | Basal_Viability ATP HT-29 IC50/EC50 ([5]; basal): > 20 µM | Basal_Viability ATP SNU-C1 IC50/EC50 ([6]; basal): > 20 µM | Basal_Viability ATP Colo 320 IC50/EC50 ([7]; basal): > 20 µM

CS(=O)(=O)O.Cc1ccc2c(c1)c1c3n2CCNC3CCC1 (stereo not drawn) [NCGC00024749-04]
Basal_Viability ATP HCT116 IC50/EC50 ([1]; assay number 25): > 20 µM | Basal_Viability ATP SW480 IC50/EC50 [2]: > 20 µM | Hela CellCycMod PI 2N IC50/EC50 ([9]; assay number 14, 2N): > 10 µM | Hela CellCycMod PI S Phase IC50/EC50 ([9]; assay number 15, S phase): > 10 µM | Hela CellCycMod PI 4N IC50/EC50 ([9]; assay number 16, 4N): > 10 µM | Hela CellCycMod PI MI IC50/EC50 ([9]; assay number 17, MI): > 10 µM | Hela CellCycMod PI Cell Number IC50/EC50 ([9]; assay number 18, cell number): > 10 µM | Basal_Viability ATP RKO IC50/EC50 [3]: > 20 µM | Basal_Viability ATP DLD-1 IC50/EC50 [4]: > 20 µM | Basal_Viability ATP HT-29 IC50/EC50 [5]: > 20 µM | Basal_Viability ATP SNU-C1 IC50/EC50 [6]: 2.4763 µM | Basal_Viability ATP Colo 320 IC50/EC50 [7]: > 20 µM
